For one test, the system named is plasma ALP (80-90% containing TNAP). In words: Inhibitory test of plasma TNAP activity in B6 mouse. The test is classed as in vivo. As to conditions: oral, dose 1 mg/kg, average 0-6 h after administration. How it is done: After blood sampling from the tail vein using a heparin-treated hematocrit capillary tube (EM Meister Hematocrit Capillary Tube, AS ONE Corp.) (as the sample before compound administration), each test compound suspended in a 0.5% methylcellulose solution (powder purchased from Wako Pure Chemical Industries, Ltd. was adjusted to 0.5% with Otsuka distilled water) was administered orally to the mouse. 1, 2, 4, 6, and 24 hours after the administration, blood was collected from the tail vein using a heparin-treated hematocrit capillary tube to obtain a plasma sample. The plasma sample was added to an assay buffer (1 M Tris, 1 M MgCl2, 20 mM ZnCl2, and water, pH 7.5), and the mixture was left standing for 5 minutes. Then, the absorbance at 405 nm was measured and used as a blank. The substrate pNPP was added to the plasma sample and incubated at room temperature for 180 minutes. Then, the absorbance (ABS: 405 nm) was measured using a microplate reader (model plus 384, Molecular Devices, LLC), and the concentration of produced p-nitrophenol was calculated. The blank was subtracted from all measurement values to calculate TNAP activity at each time point with the TNAP activity of the sample before compound administration defined as 100%. The pharmaceutical effect of the test compound was evaluated by the average inhibition of plasma ALP (80-90% containing TNAP) activity for 6 hours from 0 hour to 6 hour after the administration of the test compound. It was calculated according to the following expression: 100−((plasma ALP activity at 0 hr+plasma ALP activity at 1 hr)*½+(plasma ALP activity at 1 hr+plasma ALP activity at 2 hr)*½+(plasma ALP activity at 2 hr+plasma ALP activity at 4 hr)*2/2+(plasma ALP activity at 4 hr+plasma ALP activity at 6 hr)*2/2)/6 The results are shown in Table 2.
Chain of human TNAP (P05186 18-524): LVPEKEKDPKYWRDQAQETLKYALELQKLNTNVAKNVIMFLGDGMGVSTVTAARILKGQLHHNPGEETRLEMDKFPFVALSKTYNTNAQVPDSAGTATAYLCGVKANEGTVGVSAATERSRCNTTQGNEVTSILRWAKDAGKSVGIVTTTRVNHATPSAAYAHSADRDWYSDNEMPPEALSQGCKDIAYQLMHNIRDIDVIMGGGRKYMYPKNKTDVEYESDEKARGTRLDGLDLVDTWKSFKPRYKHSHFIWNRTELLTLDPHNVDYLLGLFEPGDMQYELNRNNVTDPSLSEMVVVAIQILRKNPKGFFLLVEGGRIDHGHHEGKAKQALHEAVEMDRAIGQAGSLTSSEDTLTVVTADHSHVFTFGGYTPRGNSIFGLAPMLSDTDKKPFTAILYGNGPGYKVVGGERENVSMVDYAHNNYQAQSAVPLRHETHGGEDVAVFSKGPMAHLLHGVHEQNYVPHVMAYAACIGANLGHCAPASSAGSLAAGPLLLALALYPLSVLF
Regarding `COc1ccc(Cl)cc1S(=O)(=O)[N-]c1cnc2c(c1)-c1nnc(C)n1CCO2.[K+]` [Example 2, Potassium [(5-chloro-2-methoxyphenyl)sulfonyl](3-methyl-5,6-dihydropyrido[3,2-f][1,2,4]triazolo[4,3-d][1,4]oxazepin-10-yl)azanide], the “Plasma ALP inhibition (6 h ave. inhibition %)” value is 34.4%.

Still in this test, the particulars now being: oral, dose 3 mg/kg, average 0-6 h after administration.
On to `CCOc1ccc(F)cc1S(=O)(=O)[N-]c1cnc2c(c1)-c1ccnn1CCO2.[K+]` [Example 10, Potassium 5,6-dihydropyrazolo[1,5-d]pyrido[3,2-f][1,4]oxazepin-10-yl[(2-ethoxy-5-fluorophenyl)sulfonyl]azanide], for which the “Plasma ALP inhibition (6 h ave. inhibition %)” value was 43.3%. Same read-out and setting: with `CCOc1ncc(F)cc1S(=O)(=O)[N-]c1cnc2c(c1)-c1ccnn1CCO2.[K+]` [Example 15, Potassium 5,6-dihydropyrazolo[1,5-d]pyrido[3,2-f][1,4]oxazepin-10-yl[(2-ethoxy-5-fluoropyridin-3-yl)sulfonyl]azanide] the figure was 61.4%.

In a further test the target is human TNAP (Homo sapiens (Human), UniProt P05186). Kind of test: Inhibitory test of TNAP activity (pNPP substrate, p-nitrophenol production). The note with it: human TNAP from transfected COS1 culture supernatant, 60 minutes at room temperature. The test is classed as biochemical. How it is done:
COS1 cells (DS Pharma Biomedical Co., Ltd.) were transfected with human TNAP (OriGene Technologies, Inc.) using Lipofectamine LTX & Plus reagent (Invitrogen Corp.). On the next day, the medium was replaced with a fresh medium, and the cells were cultured in an incubator for 3 days. After 3 days, the culture supernatant was collected and concentrated by centrifugation at 5000 G for 30 minutes using Amicon 14, 10^4 cut (Merck Millipore). The concentrated culture supernatant was dialyzed against 5 L of 50 mM Tris/200 mM NaCl/1 mM MgCl2/20 μM ZnCl2 twice and used as an enzyme source (enzyme solution). The substrate pNPP (ProteoChem Inc.) was adjusted to 3.1 mM with Milli-Q water, and a solution of each test compound dissolved in dimethyl sulfoxide (DMSO; Wako Pure Chemical Industries, Ltd.) by 6 serial dilutions at a 5-fold common ratio from 100 μM, or DMSO was added thereto at a final concentration of 1% by volume. The enzyme solution adjusted to 2 μg/mL with an assay buffer (200 mM Tris/2 mM MgCl2/0.04 mM ZnCl2/0.01% Tween 20) was added in the same amount of the substrate solution and incubated at room temperature for 60 minutes. Then, the absorbance (ABS: 405 nm) was measured using a microplate reader (model plus 384, Molecular Devices, LLC), and the concentration of produced p-nitrophenol was calculated.
Usually IC50 stands for the concentration that inhibits the measured activity by half. A high value points to weaker potency in that assay. `COc1ncc(Cl)cc1S(=O)(=O)Nc1cnc2c(c1)-c1ccnn1[C@H](C)CO2` [Example 23, 5-chloro-2-methoxy-N-[(5R)-5-methyl-5,6-dihydropyrazolo[1,5-d]pyrido[3,2-f][1,4]oxazepin-10-yl]pyridine-3-sulfonamide]: half-maximal inhibition (IC50) was put at 5.7 nM. `COC(=O)N[C@@H]1C[C@@H]2COc3ncc(NS(=O)(=O)c4cc(Cl)ccc4OC)cc3C(=O)N2C1` [Example 50, methyl [(8R,9aR)-3-{[(5-chloro-2-methoxyphenyl)sulfonyl]amino}-5-oxo-8,9,9a,10-tetrahydro-5H, 7H-pyrido[3,2-f]pyrrolo[2,1-c][1,4]oxazepin-8-yl]carbamate] gave an IC50 of 0.5 nM.

`COc1ccc(Cl)cc1S(=O)(=O)Nc1cnc2c(c1)-c1ccnn1[C@H](C)CO2` [Example 17, 5-chloro-2-methoxy-N-[(5R)-5-methyl-5,6-dihydropyrazolo[1,5-d]pyrido[3,2-f][1,4]oxazepin-10-yl]benzenesulfonamide] displayed an IC50 of 6.9 nM. Still for that read-out and setting: with `O=C1c2cc(NS(=O)(=O)c3cc(F)ccc3OC(F)(F)F)cnc2OC[C@H]2C[C@H](O)CN12` [Example 34, 5-fluoro-N-[(8S,9aR)-8-hydroxy-5-oxo-8,9,9a,10-tetrahydro-5H,7H-pyrido[3,2-f]pyrrolo[2,1-c][1,4]oxazepin-3-yl]-2-(trifluoromethoxy)benzenesulfonamide] the figure was 1.6 nM; with `COc1ccc(Cl)cc1S(=O)(=O)Nc1cnc2c(c1)C(=O)N1CC[C@@H](O)[C@@H]1CO2` [Example 40, 5-chloro-N-[(9R,9aS)-9-hydroxy-5-oxo-8,9,9a,10-tetrahydro-5H,7H-pyrido[3,2-f]pyrrolo[2,1-c][1,4]oxazepin-3-yl]-2-methoxybenzenesulfonamide], 5.8 nM; with `O=C1c2cc(NS(=O)(=O)c3cc(Cl)ccc3OC(F)(F)F)cnc2OC[C@H]2C[C@H](O)CN12` [Example 32, 5-chloro-N-[(8S,9aR)-8-hydroxy-5-oxo-8,9,9a,10-tetrahydro-5H,7H-pyrido[3,2-f]pyrrolo[2,1-c][1,4]oxazepin-3-yl]-2-(trifluoromethoxy)benzenesulfonamide], 0.9 nM. Still for that read-out and setting: with `COc1ccc(Cl)cc1S(=O)(=O)Nc1cnc2c(c1)CN1C(=O)CN(C)C[C@H]1CO2` [Example 64, 5-chloro-2-methoxy-N-[(10aS)-9-methyl-7-oxo-7,8,9,10,10a, 11-hexahydro-5H-pyrazino[2,1-c]pyrido[3,2-f][1,4]oxazepin-3-yl]benzenesulfonamide] the figure was 1.8 nM; with `O=C1c2cc(NS(=O)(=O)c3cc(Cl)ccc3OC(F)(F)F)cnc2OC[C@H]2C[C@@H](O)CN12` [Example 37, 5-chloro-N-[(8R,9aR)-8-hydroxy-5-oxo-8,9,9a,10-tetrahydro-5H,7H-pyrido[3,2-f]pyrrolo[2,1-c][1,4]oxazepin-3-yl]-2-(trifluoromethoxy)benzenesulfonamide], 1.4 nM. For `COc1ccc(F)cc1S(=O)(=O)Nc1cnc2c(c1)C(=O)N1C[C@H](O)C[C@@H]1CO2` [Example 36, 5-fluoro-N-[(8R,9aR)-8-hydroxy-5-oxo-8,9,9a,10-tetrahydro-5H,7H-pyrido[3,2-f]pyrrolo[2,1-c][1,4]oxazepin-3-yl]-2-methoxybenzenesulfonamide], the IC50 was found to be 1.5 nM. Molecule `COc1ccc(Cl)cc1S(=O)(=O)Nc1cnc2c(c1)C(=O)N1C[C@@H](F)C[C@@H]1CO2` [Example 44, 5-chloro-N-[(8S,9aR)-8-fluoro-5-oxo-8,9,9a,10-tetrahydro-5H,7H-pyrido[3,2-f]pyrrolo[2,1-c][1,4]oxazepin-3-yl]-2-methoxybenzenesulfonamide] gave an IC50 of 0.8 nM. Still for that read-out and setting: in the case of `CCOc1ccc(F)cc1S(=O)(=O)Nc1cnc2c(c1)-c1ccnn1CCO2` [Example 9, N-(5,6-dihydropyrazolo[1,5-d]pyrido[3,2-f][1,4]oxazepin-10-yl)-2-ethoxy-5-fluorobenzenesulfonamide] it was 3.4 nM; in that of `COc1ccc(Cl)cc1S(=O)(=O)Nc1cnc2c(c1)-c1ccnn1CCO2` [Example 7, 5-chloro-N-(5,6-dihydropyrazolo[1,5-d]pyrido[3,2-f][1,4]oxazepin-10-yl)-2-methoxybenzenesulfonamide], 6.5 nM. The same measure, in the same setting: with `COc1ccc(Cl)cc1S(=O)(=O)Nc1cnc2c(c1)C(=O)N1CCC[C@H]1CO2` [Example 27, 5-chloro-2-methoxy-N-[(9aS)-5-oxo-8,9,9a,10-tetrahydro-5H,7H-pyrido[3,2-f]pyrrolo[2,1-c][1,4]oxazepin-3-yl]benzenesulfonamide] the figure was 13.2 nM.

Molecule `COc1ccc(Cl)cc1S(=O)(=O)Nc1cnc2c(c1)CN1C(=O)COC[C@H]1CO2` [Example 60, 5-chloro-2-methoxy-N-[(10aS)-7-oxo-7,8,10a,11-tetrahydro-5H,10H-[1,4]oxazino[3,4-c]pyrido[3,2-f][1,4]oxazepin-3-yl]benzenesulfonamide] had an IC50 of 3.3 nM. The same measure, in the same setting: in the case of `COc1ccc(Cl)cc1S(=O)(=O)Nc1cnc2c(c1)C(=O)N1CC[C@H](O)[C@@H]1CO2` [Example 41, 5-chloro-N-[(9S,9aS)-9-hydroxy-5-oxo-8,9,9a,10-tetrahydro-5H,7H-pyrido[3,2-f]pyrrolo[2,1-c][1,4]oxazepin-3-yl]-2-methoxybenzenesulfonamide] it was 0.4 nM. Molecule `COc1ccc(Cl)cc1S(=O)(=O)Nc1cnc2c(c1)CN1C(=O)CC[C@H]1CO2` [Example 52, 5-chloro-2-methoxy-N-[(9aS)-7-oxo-8,9,9a,10-tetrahydro-5H,7H-pyrido[3,2-f]pyrrolo[2,1-c][1,4]oxazepin-3-yl]benzenesulfonamide] had an IC50 of 2.2 nM. The same measure, in the same setting: with `CC(=O)O[C@H]1C[C@@H]2COc3ncc(NS(=O)(=O)c4cc(Cl)ccc4OC(F)(F)F)cc3C(=O)N2C1` [Example 47, (8S,9aR)-3-({[5-chloro-2-(trifluoromethoxy)phenyl]sulfonyl}amino)-5-oxo-8,9,9a,10-tetrahydro-5H,7H-pyrido[3,2-f]pyrrolo[2,1-c][1,4]oxazepin-8-yl acetate] the figure was 1.5 nM. `COc1ccc(Cl)cc1S(=O)(=O)Nc1cnc2c(c1)C(=O)N1C[C@@H](O)C[C@@H]1CO2` [Example 30, 5-chloro-N-[(8S,9aR)-8-hydroxy-5-oxo-8,9,9a,10-tetrahydro-5H,7H-pyrido[3,2-f]pyrrolo[2,1-c][1,4]oxazepin-3-yl]-2-methoxybenzenesulfonamide] gave an IC50 of 0.9 nM. As for `CCOc1ncc(Cl)cc1S(=O)(=O)Nc1cnc2c(c1)-c1ccnn1CCO2` [Example 13, 5-chloro-N-(5,6-dihydropyrazolo[1,5-d]pyrido[3,2-f][1,4]oxazepin-10-yl)-2-ethoxypyridine-3-sulfonamide], the IC50 came to 5.1 nM. Same read-out and setting: in the case of `COc1ccc(Cl)cc1S(=O)(=O)Nc1cnc2c(c1)-c1ccnn1[C@@H](C)CO2` [Example 16, 5-chloro-2-methoxy-N-[(5S)-5-methyl-5,6-dihydropyrazolo[1,5-d]pyrido[3,2-f][1,4]oxazepin-10-yl]benzenesulfonamide] it was 3.5 nM.
